Read-outs that look alike come from different tables or passages of the source.
How the values were obtained:
[1] = Toxicity assays in tumor-bearing mice: behavior, body weight, organ morphology; assay type: in vivo; conditions: for signs of toxicity (behavior, weight gain, hematocrit), in words: all in vivo tumor experiments
Protocol: (§1) As an indirect measurement of general toxicity, body weights of mice were monitored twice weekly, using a digital balance (Ohaus Florham, N.J.). To determine hematocrit levels, blood samples were extracted by tail vein bleedings one day after terminating treatment, and blood was collected in heparinized micro-hematocrit capillary lubes (Fisher Pittsburgh, Pa.). Samples were spun down for 10 minutes in a micro-hematocrit centrifuge (Clay-Adams; NY), and the amount of hematocrit was determined using an international microcapillary reader (IEC; Needham, Mass.).

bFGF-stimulated HUVEC = experiment: EC proliferation, [3H]-thymidine incorporation, bFGF-stimulated HUVEC (Example 48); assay type: cell-based, human; conditions: for IC50: bFGF-stimulated HUVEC, highest dose tested 25 μM; for activity as anti-angiogenic agents, ranking in words: library of 23 compounds
Protocol: Proliferation is expressed as mean counts per minute (cpm) of quadruplicate cultures in three independent experiments (±SEM). […] Human umbilical vein derived EC (HUVEC) were harvested from normal human umbilical cords by perfusion with 0.125% trypsin/EDTA. Harvested HUVECs were cultured in gelatin coated tissue culture flasks and subcultured 1:3 once a week in culture medium (RPM1-1640 with 20% human serum (HS), supplemented with 2 mM glutamine and 100 U/mL penicillin and 0.1 mg/mL streptomycin). Statistical analysis was performed by using the Student's t-test.

[2] = Hematocrit levels, study with B16 tumors in immune competent mice; assay type: in vivo; conditions: vehicle 51±1.4
Protocol: as §1

MA148 tumor = experiment: TUNEL staining for total cell apoptosis, MA148 tumors; assay type: in vivo, mice; conditions: mean ± standard error, 20 images
Protocol: (§2) To assess the extent of total cell apoptosis, tumor tissue sections were stained by using the TUNEL (terminal deoxyribonucleotidyl transferase-mediated dUTP-nick-end labeling) assay, which was performed according to the manufacturer's instructions (In situ cell death detection kit, fluorescein; TUNEL, Roche). After 1-hour incubation at room temperature, slides were washed with PBS and immediately imaged using an Olympus BX-60 fluorescence microscope at 200× magnification.

B16F10 tumor vessels = experiment: Histological analysis of microvessel density, anti-CD31 staining, B16F10 tumors; assay type: in vivo, mice; conditions: B16F10, 10 mg/kg; mean ± standard error, 20 images
Protocol: Immunohistochemistry was used to assess microvessel density and the extent of total cell apoptosis. Approximately, tumors of the same size and with no apparent necrosis were selected for processing. On the last day of treatment mice were sacrificed and tumors were excised. Tumor tissue was embedded in tissue freezing medium (Miles Inc, Elkart, Ind.) and shock frozen in liquid nitrogen. Sections of tissue (10 μm thickness) were prepared for immunohistochemical analysis. For this, tissue sections were brought to room temperature, air dried overnight, and then fixed in acetone for 10 minutes. Slides were allowed to air dry for at least 30 minutes and were washed three limes for 5 minutes each in phosphate-buffered saline (PBS, pH 7.4). Samples were then blocked with PBS containing 0.1% bovine serum albumin and 3% human serum albumin for at least 30 minutes at room temperature in a humidified box. Samples were subsequently incubated with phycoerytrin (PE)-conjugated monoclonal antibody to CD31 (PECAM-1) in a 1:50 dilution (Pharmigen, San Diego, Calif.) to stain for microvessel density.
Digital images were stored and processed using Adobe Photoshop (Adobe Inc., Mountain View Calif.). Quantification of microvessel density, were determined as described previously (Dings et al., Cancer Res 63, 382-385 (2003)). Statistical analysis was performed using the Student's t-test.

fibroblasts = experiment: Proliferation of fibroblasts (general cell toxicity check); assay type: cell-based
LPS from S. marcascens = experiment: LPS neutralization assay (Limulus amoebocyte lysate, QCL-1000); assay type: biochemical, Serratia marcascens; conditions: read-out: IC50 values (μM) for LPS binding, Serratia
How it was run: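 LPS (0.04 units per strain) is mixed with compound and Limulus amoebocyte lysate. Proenzyme activation is then followed by chromogenic substrate cleavage and pNA absorbance at 405-410 nm. Dose-response curves are fit sigmoidally to give IC50.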

[3] = system: chorioallantoic membrane (CAM) vasculature; experiment: Chorioallantoic membrane (CAM) assay; assay type: in vivo, chicken; conditions: 25 μM daily, day 10 to 13
Protocol: Fertilized Lohman-selected white leghorn eggs were incubated for 3 days at 37° C. and 55% relative humidity and rotated once every hour. On day 3 a rectangular window (1 cm×2 cm) was made in the eggshell. The window was covered with tape to prevent dehydration. The window allowed undisturbed observation of the developing vasculature of the CAM. On day 7 a silicon ring (10 mm diameter) was placed on the CAM to allow local drug administration within the ring. Compounds were applied daily in aliquots of 65 μl (25 μM) from day 10 to day 13. On day 14 the CAMs were photographed.

LPS from K. pneumoniae = experiment: LPS neutralization assay (Limulus amoebocyte lysate, QCL-1000); assay type: biochemical, Klebsiella pneumoniae; conditions: read-out: IC50 values (μM) for LPS binding, Klebsiella
How it was run: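 Absorbance at 405-410 nm tracks pNA released from a synthetic substrate by LPS-activated lysate enzyme. Compounds were titrated against 0.04 units of each LPS. IC50 values derive from sigmoidal curve fitting.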

B16F10 tumor = experiment: TUNEL staining for total cell apoptosis, B16F10 tumors; assay type: in vivo, mice; conditions: B16F10, 10 mg/kg; mean ± standard error, 20 images
Protocol: as §2

[4] = Hematocrit levels, first (MA148) study; assay type: in vivo, mice; conditions: last day of treatment, vehicle 47±5.7
Protocol: as §1

Compound: 5,11,17,23-Tetra-tert-butyl-25,27-bis(2-guanidinoethoxy)-26,28-dihydroxy calix[4]arene trifluoroacetic acid salt [Compound 27]
- drop of body weights during treatment ([1]; B16 model, i.p. administration): about 5%
- signs of toxicity (behavior, weight gain, hematocrit), in words [1]: did not generally show signs of toxicity
- IC50 (bFGF-stimulated HUVEC): 8 µM
- activity as anti-angiogenic agents, ranking in words (bFGF-stimulated HUVEC): most active as anti-angiogenic agents
- Hematocrit levels ±SD [2]: 49±1.4 percentage red blood cells
- Apoptosis (MA148 tumor; MA148, 2.7 mg/kg): 2418 ± 72 pixel counts per image
- Apoptosis (MA148 tumor; MA148, 10 mg/kg): 2333 ± 173 pixel counts per image
- Branch Points (B16F10 tumor vessels): 3.5 ± 0.5 pixel counts per image
- End Points (B16F10 tumor vessels): 35.2 ± 4.0 pixel counts per image
- Vessel Density (B16F10 tumor vessels): 10743 ± 764 pixel counts per image
- Vessel Length (B16F10 tumor vessels): 7.5 ± 0.6 pixel counts per image
- IC50 (fibroblasts; read-out: concentration giving 50% growth inhibition, fibroblasts): ~20 µM
- IC50 (LPS from S. marcascens; Table 3, errors estimated ±30%): > 5 µM
- angiogenesis inhibition in CAM assay (in words) [3]: angiogenesis is inhibited
- IC50 (LPS from K. pneumoniae; Table 3, errors estimated ±30%): > 5 µM
- Apoptosis (B16F10 tumor): 2357 ± 103 pixel counts per image
- Hematocrit levels ±SD ([4]; 2.7 mg/kg): 46.5±0.7 percentage of red blood cells
- Hematocrit levels ±SD ([4]; 10 mg/kg): 47±4.2 percentage of red blood cells

Compound: CN(C)CCNC(=O)COc1c2cccc1Cc1cccc(c1OCC(=O)NCCN(C)C)Cc1cccc(c1OCC(=O)NCCN(C)C)Cc1cccc(c1OCC(=O)NCCN(C)C)C2 [Compound 40]
- signs of toxicity (behavior, weight gain, hematocrit), in words [1]: did not generally show signs of toxicity
- IC50 (bFGF-stimulated HUVEC): 2 µM
- activity as anti-angiogenic agents, ranking in words (bFGF-stimulated HUVEC): most active as anti-angiogenic agents
- Hematocrit levels ±SD [2]: 53±0 percentage red blood cells
- Apoptosis (MA148 tumor; MA148, 2.4 mg/kg): 2919 ± 144 pixel counts per image
- Apoptosis (MA148 tumor; MA148, 10 mg/kg): 2323 ± 171 pixel counts per image
- Branch Points (B16F10 tumor vessels): 5.2 ± 0.7 pixel counts per image
- End Points (B16F10 tumor vessels): 21.9 ± 2.6 pixel counts per image
- Vessel Density (B16F10 tumor vessels): 10231 ± 1330 pixel counts per image
- Vessel Length (B16F10 tumor vessels): 8.6 ± 1.2 pixel counts per image
- concentration giving 50% growth inhibition, fibroblasts (fibroblasts): no delectable effects
- IC50 (LPS from S. marcascens; Table 2): > 5 µM
- IC50 (LPS from S. marcascens; Table 3, errors estimated ±30%): > 5 µM
- angiogenesis inhibition in CAM assay (in words) [3]: angiogenesis is inhibited
- IC50 (LPS from K. pneumoniae; Table 2): 1.5 µM
- IC50 (LPS from K. pneumoniae; Table 3, errors estimated ±30%): 1.5 µM
- Apoptosis (B16F10 tumor): 2807 ± 140 pixel counts per image
- Hematocrit levels ±SD ([4]; 2.4 mg/kg): 50±1.4 percentage of red blood cells
- Hematocrit levels ±SD ([4]; 10 mg/kg): 49.5±2.1 percentage of red blood cells
